According to US11447638B2, “Acetalanthraquinone derivatives useful for cellular staining” (BIOSTATUS LIMITED, priority 2016, dated 2022):

Columns and labels:
U-2 OS cells = assay: Confocal laser scanning microscopy (CLSM) localisation analysis; format: cell-based, human; details: 30 min incubation, Ex 637 nm, Em >665 nm, FIG. 4 and 5
Description: Confocal laser scanning microscopy (CLSM) was used to analyse the localisation of compounds BST-100, BST-101 and BST-106 with the U-2 OS cells, as it permitted the acquisition of volume limited optical sections through the cell and media. Excitation (637 nm) and emission (>665 nm) values for the probe analysis were the optimal conditions. The data sets obtained were processed and assembled into a single maximum projection image.
The patterns were analysed after 30 min incubation at different z depths and eliminating the solution background. The nucleus/cytoplasm ratio was calculated to quantify the localisation of the probe per cell.
A Radiance CLSM (BioRad Microscience) was used attached to an inverted Nikon microscope. Image acquisition was performed using excitation (637 nm) and emission (>665 nm) wavelengths. The histogram plot reports the nucleus/cytoplasm index to determine DNA binding in live cells. The calibration bar represents 10 μm.
The compounds BST-108, BST-109 were analysed in the same way.

[1] = Absorption and fluorescence spectra of compounds in PBS or HEPES; format: physicochemical; details: for peak excitation wavelength: excitation wavelength used for fluorescence spectra of FIG. 1A/1B; for fluorescence emission, λ1 nm (Ex in HEPES) / fluorescence emission, λ1 nm (Ex in PBS): excited at absorption peak 1 (λ1); for fluorescence emission, λ1 nm (Ex in HEPES) / fluorescence emission, λ1 nm (Ex in PBS) / fluorescence emission, 540 nm (Ex in PBS): 20 μM; for fluorescence emission, 540 nm (Ex in PBS): excited at 540 nm
Description: The compounds were exited at 540 nm and at the wavelength of their absorption peak 1 (λ1 nm). The far-red fluorescent DNA dye DRAQ5 was used as reference.
Compounds were dissolved in DMSO (Sigma) to 20 mM stock concentration. DRAQ5 (Biostatus Ltd) was used as a control anthraquinone agent dissolved in deionised water. Working solutions were prepared in PBS (phosphate buffered saline; Sigma) or HEPES (4-(2-hydroxyethyl)-1-piperazineethanesulfonic acid; Sigma) at 20 or 40 μM. Probe solutions (20 μM), respectively in PBS or HEPES, were pipetted into a 1 mL quartz cuvette (Thermo Fisher Scientific). After obtaining baseline spectra in relevant buffer to zero the instrument, absorbance measurements were obtained using a Beckmann Coulter DU 800 UV/Visible spectrophotometer. The excitation wavelengths were scanned from 280 to 800 nm. Fluorescent spectral scans were performed using a Perkin Elmer LS-50B Luminescence spectrophotometer. To obtain emission scans, the excitation wavelength was set accordingly to the maximum values for each agent or another designated excitation wavelength that matches typical laser lines; and the emission wavelength were scanned from 400 nm to 900 nm in 1 nm increments. A Xenon flash lamp was used as the light source, with the lamp energy set to high. For each data point ten measurements were acquired with the photomultiplier tube sensitivity set at 125.
Compounds were excited at a wavelength corresponding to the first absorbance peak 1 (FIG. 1A and FIG. 1B show absorption (line) and fluorescence (dots) spectra of compounds; both are normalised to peak value.

MCF7 = assay: MTT cellular viability (growth inhibition) assay, MCF7; format: cell-based; details: Homo sapiens, 0.25-100 μM, 72 h, Table 3
Description: (§1) The viability of A549 or MCF7 in response to compounds was determined using the MTT (3-(4,5-dimethylthiazolyl-2-)-2, 5-diphenyltetrazolium bromide) assay according to the protocol set out in Mosmann T., Rapid colorimetric assay for cellular growth and survival: application to proliferation and cytotoxicity assays. Journal of immunological methods 1983; 65:55-63.
(§2) Initially, cells were seeded into a rounded-bottom 96 well plate (Corning) at six different cell seeding densities (0.5×104, 1×104, 2×104, 3×104, 4×104, and 5×104) per mL of R10 media (cells/mL) in order to optimise the assay and establish the most suitable seeding assay. Concentration of 1×10^4 cells/mL was determined to be the optimum seeding density for both cell lines for 96 h total incubation. A control lane contained supplemented R10 only. The 96 well plates were incubated overnight at 37° C., 5% CO2 and 100% humidity to allow cell adhesion. Cells were then treated respectively with novel AAQs (0.25-100 μM) or growth inhibition (IC50) of compounds of the invention was studied against MCF7 and A549 cancer cell lines. Compounds were tested with a concentration range between 0.25 and 100 μM for 72 h and doxorubicin, as positive cytotoxic control, was tested in parallel at the same doses.

A549 = assay: MTT cellular viability (growth inhibition) assay, A549; format: cell-based; details: Homo sapiens, 0.25-100 μM, 72 h, Table 3
Description: as §1, §2

A549 live cells = assay: Loading of A549 live cells, wide-field fluorescence microscopy; format: cell-based, human; details: 20 μM, 30 min incubation, FIG. 3
Description: Before analysis, cells were incubated at 37° C. in the dark for the period designated. Samples were analysed directly without any further washing step. For live cell labelling cells were seeded, plated in a similar way, into a similar multi-well dish for optimal optical performance and could be used across all microscope platforms.
This basic protocol was the standard for testing the patterns of AAQ agents at 20 μM, compared to 20 μM of DRAQ5 as the benchmark reference (both in terms of cellular location and ability to detect the red fluorescence).
Low resolution wide-field fluorescence microscopy was used to evaluate cell uptake and localisation of the probe compounds. The system was an Axiovert 100 microscope (Carl Zeiss, Welwyn Garden City, UK) ×10 0.3 NA air objective lens and an ORCA-ER CCD camera (Hamamatsu, Reading, UK). Illumination was controlled by a shutter in front of the transmission lamp. Image capture was controlled using Metamorph software. Human non-small cell lung cancer A549 cell line was used as the cell model to determine whether variation of the probe loading and localisation occurred in cell population sustaining a “side population” (SP) (Smith P J, Wiltshire M, Chappell S C, Cosentino L, Burns P A, Pors K, Errington R J. Kinetic analysis of intracellular Hoechst 33342—DNA interactions by flow cytometry: misinterpretation of side population status? Cytometry A 2013; 83:161-9) with a known capacity to efflux xenobiotic molecules, including the DNA dye Hoechst 33342.
Cells were incubated for 30 min with each compound and then images were collected at a 30 ms exposure time using low resolution wide-field fluorescence microscopy. Using an Axiovert 100 microscope (Carl Zeiss, Welwyn Garden City, UK) ×10 0.3 NA air objective lens and an ORCA-ER CCD camera (Hamamatsu, Reading, UK). Illumination was controlled by a shutter in front of the transmission lamp. Image capture was controlled using Metamorph software. The calibration bar represents 50 μm.

A549 cells = assay: Flow cytometry analysis of cell uptake before/after hydrolysis; format: cell-based, human; details: 20 μM, 30 min, solution: media
Description: Flow cytometry analysis was performed to evaluate the effect of pre-treatment with HCl to generate an active aldehyde on the cell uptake properties. A549 cells were incubated for 30 min with compounds of Formula (I) and its hydrolysed forms (20 μM) prior to analysis. The rate of uptake was tested in A549 cell culture media and in Aldefluor buffer, containing the MDR-blocker verapamil (Pearce and Bonnet 2007), to evaluate the effect in uptake with/without the Aldefluor assay system. Analysis was conducted in the viable subset of cells, corresponding to ˜95% of the total amount under investigation.
Aldefluor buffer contained verapamil vs. cell media. The cells were incubated with 20 μM of the respective AAQ/HAAQs (30 min) before analysis
Statistical analysis of A549 uptake before/after hydrolysis was also studied. Experiments were performed in cell media versus Aldefluor buffer. Data were processed using FlowJo software (Tree Star). DRAQ5 was used to set the dynamic range and as control dye and empty cells were used to determine auto-fluorescence.

With `COC(CCCCNc1ccc(NCCCCC(OC)OC)c2c1C(=O)c1c(O)ccc(O)c1C2=O)OC` [BST-100, 1,4-Bis(5,5-dimethoxypentylamino)-5,8-dihydroxyanthracene-9,10-dione] the “subcellular localisation by CLSM” value (U-2 OS cells) was “low levels of probe in the perinuclear region, with probable overload in Golgi body and large vesicles”, the peak excitation wavelength [1] was 584 nm and the “fluorescence emission, λ1 nm (Ex in HEPES)” value [1] was 740 nm. For the same compound, the “fluorescence emission, λ1 nm (Ex in PBS)” value [1] was 747.5 nm.

In the case of `COC(CNC(=O)CCNc1ccc(NCCC(=O)NCC(OC)OC)c2c1C(=O)c1ccccc1C2=O)OC` [BST-102, 3,3′-(9,10-Dioxo-9,10-dihydroanthracene-1,4-diyl)bis(azanediyl)bis(N-(2,2-dimethoxyethyl)propanamide)], the IC50 (MCF7) is reported as 1750 nM, the peak excitation wavelength [1] is reported as 585 nm and the “fluorescence emission, 540 nm (Ex in PBS)” value [1] is reported as 670 nm. The “fluorescence emission, λ1 nm (Ex in HEPES)” value [1] was 663 nm, the “fluorescence emission, λ1 nm (Ex in PBS)” value [1] was 661 nm and the IC50 (A549) was > 100000 nM.

With `COC(CNC(=O)CCNc1ccc(NCCC(=O)NCC(OC)OC)c2c1C(=O)c1c(O)ccc(O)c1C2=O)OC` [BST-104, 3,3′-(5,8-dihydroxy-9,10-dioxo-9,10-dihydroanthracene-1,4diyl)bis(azanediyl)bis(N-(2,2-dimethoxyethyl)propanamide)] the “fluorescence emission, 540 nm (Ex in PBS)” value [1] was 712 nm, the “fluorescence emission, λ1 nm (Ex in HEPES)” value [1] was 726 nm and the “fluorescence emission, λ1 nm (Ex in PBS)” value [1] was 684 nm.

For `COC(CCCCNc1ccc(NCCN(C)C)c2c1C(=O)c1c(O)ccc(O)c1C2=O)OC` [BST-107, 1-(5,5-Dimethoxypentylamino)-4-(2-(dimethylamino)ethylamino)-5,8-dihydroxyanthracene-9,10-dione], the IC50 (MCF7) was 1660 nM and the IC50 (A549) was 17500 nM.

With `COC(CN(C)CCNc1ccc(NCCN(C)CC(OC)OC)c2c1C(=O)c1c(O)ccc(O)c1C2=O)OC` [BST-201, 1,4-bis((2-((2,2-dimethoxyethyl)(methyl)amino)ethyl)amino)-5,8-dihydroxyanthracene-9,10-dione] the “staining pattern in live cells” value (A549 live cells) was “perinuclear accumulation”, the “fluorescence emission, 540 nm (Ex in PBS)” value [1] was 684 nm and the “fluorescence emission, λ1 nm (Ex in HEPES)” value [1] was 684 nm. For the same compound, the “fluorescence emission, λ1 nm (Ex in PBS)” value [1] was 690.5 nm.

In the case of `COC(CN(CCNc1ccc(NCCN(Cc2ccccc2)CC(OC)OC)c2c1C(=O)c1c(O)ccc(O)c1C2=O)Cc1ccccc1)OC` [BST-202, 1,4-bis((2-(benzyl(2,2-dimethoxyethyl)amino)ethyl)amino)-5,8-dihydroxyanthracene-9,10-dione], the “fluorescence emission, λ1 nm (Ex in HEPES)” value [1] is reported as 680 nm.

With `CN(C)CCNc1ccc(O)c2c1C(=O)c1c(O)ccc(NCCN(C)C)c1C2=O` [DRAQ5, reference compound] the “Median (fluorescence, uptake)” value (A549 cells) was 217.4, the “% ile (25)” value (A549 cells; low loader cell population) was 191.27 and the “fluorescence emission, 540 nm (Ex in PBS)” value [1] was 635 nm. The “fluorescence emission, λ1 nm (Ex in HEPES)” value [1] was >665 nm and the “fluorescence emission, λ1 nm (Ex in PBS)” value [1] was >665 nm.

With `COc1cccc2c1C(=O)c1c(O)c3c(c(O)c1C2=O)C[C@@](O)(C(=O)CO)C[C@@H]3O[C@H]1C[C@H](N)[C@H](O)[C@H](C)O1` [Doxorubicin, doxorubicin, reference compound] the IC50 (MCF7) was 28 nM and the IC50 (A549) was 50 nM.
